Reference: the supplement of paper PMC11061612

Columns and labels:
Experiment in all cases: Bliss excess, mean over the matrix (fraction); higher = more synergy
SJSA-1 (Osteosarcoma) = tested on: SJSA-1 (Osteosarcoma)
Summary of the method: (§1)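 Bliss excess equals the observed combination effect minus the expected value EA + EB − EA·EB, where EA and EB are the effects of each agent alone. Combination Emax is the second-highest inhibition within the matrix. Inhibition was scaled from CellTiter-Glo 2.0 luminescence, with 0 set by vehicle wells and 1 by blank wells, after 72 hours of two-drug dosing of cells plated in 1536-well plates.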

[1] = tested on: IM-95 (Gastric Carcinoma)
Summary of the method: as §1

M059J (Glioblastoma) = tested on: M059J (Glioblastoma)
Summary of the method: as §1

[2] = tested on: KMS-12-BM (Plasma Cell Myeloma)
Summary of the method: as §1

[3] = tested on: NCI-H520 (Squamous Cell Lung Carcinoma)
Summary of the method: as §1

[4] = tested on: MOLM-13 (Acute Myeloid Leukemia)
Summary of the method: as §1

[5] = tested on: HCC1187 (Breast Carcinoma)
Summary of the method: as §1

[6] = tested on: KYSE-270 (Esophageal Squamous Cell Carcinoma)
Summary of the method: as §1

[7] = tested on: CHSA8926 (Chondrosarcoma)
Summary of the method: as §1

[8] = tested on: ST486 (Burkitt's Lymphoma)
Summary of the method: as §1

[9] = tested on: MN-60 (B-Lymphoblastic Leukemia)
Summary of the method: as §1

NCI-H2731 (Mesothelioma) = tested on: NCI-H2731 (Mesothelioma)
Summary of the method: as §1

[10] = tested on: SNU-398 (Hepatocellular Carcinoma)
Summary of the method: as §1

[11] = tested on: T-T (Esophageal Squamous Cell Carcinoma)
Summary of the method: as §1

[12] = tested on: ESO51 (Esophageal Adenocarcinoma)
Summary of the method: as §1

[13] = tested on: HCC1419 (Breast Carcinoma)
Summary of the method: as §1

[14] = tested on: NCI-H526 (Small Cell Lung Carcinoma)
Summary of the method: as §1

[15] = tested on: SK-GT-2 (Gastric Carcinoma)
Summary of the method: as §1

[16] = tested on: KP-3 (Pancreatic Carcinoma)
Summary of the method: as §1

[17] = tested on: DAN-G (Pancreatic Carcinoma)
Summary of the method: as §1

Row | Structure (SMILES) | Bliss excess (SJSA-1 (Osteosarcoma)) | Bliss excess [1] | Bliss excess (M059J (Glioblastoma)) | Bliss excess [2] | Bliss excess [3] | Bliss excess [4] | Bliss excess [5] | Bliss excess [6] | Bliss excess [7] | Bliss excess [8] | Bliss excess [9] | Bliss excess (NCI-H2731 (Mesothelioma)) | Bliss excess [10] | Bliss excess [11] | Bliss excess [12] | Bliss excess [13] | Bliss excess [14] | Bliss excess [15] | Bliss excess [16] | Bliss excess [17]
1 | COc1cc2ncnc(Nc3ccc(F)c(Cl)c3)c2cc1OCCCN1CCOCC1 [Gefitinib] + CC(C)n1c(=O)n(C)c2cnc3cc(F)c(-c4ccc(OCCCN5CCCCC5)nc4)cc3c21 [AZD1390] (first compound max 10 µM, 7x7, partner max 0.3 µM) | -0.0562 | -0.0527 | -0.0325 | -0.0267 | -0.0477 | -0.0462 | -0.04 | -0.003 | -0.113 | -0.0874 | -0.0444 | -0.0434 | -0.0627 | -0.0411 | -0.0488 | -0.0216 | -0.0342 | -0.0382 | -0.074 | –
2 | Cc1nc(Nc2ncc(C(=O)Nc3c(C)cccc3Cl)s2)cc(N2CCN(CCO)CC2)n1 [Dasatinib] + CC(=O)Nc1cccc(-n2c(=O)n(C3CC3)c(=O)c3c(Nc4ccc(I)cc4F)n(C)c(=O)c(C)c32)c1 [Trametinib] (first compound max 2 µM, 7x7, partner max 1 µM) | 0.0005 | -0.0551 | -0.0946 | -0.0046 | -0.0488 | 0.0284 | -0.0367 | -0.0142 | -0.194 | -0.0987 | -0.029 | 0.0298 | -0.0842 | 0.0381 | -0.0066 | – | -0.0323 | -0.0013 | 0.0304 | 0.138
3 | CC(=O)c1c(C)c2cnc(Nc3ccc(N4CCNCC4)cn3)nc2n(C2CCCC2)c1=O [Palbociclib] + Cn1cnc2c(F)c(Nc3ccc(Br)cc3Cl)c(C(=O)NOCCO)cc21 [Selumetinib] (first compound max 10 µM, 7x7, partner max 10 µM) | -0.038 | 0.0356 | -0.0441 | 0.0219 | -0.054 | 0.0262 | -0.0142 | -0.0512 | -0.0697 | 0.151 | -0.0405 | -0.0341 | -0.0388 | 0.0252 | 0.0041 | – | -0.0213 | -0.0175 | -0.0328 | -0.0077
4 | NC1(C(=O)N[C@@H](CCO)c2ccc(Cl)cc2)CCN(c2ncnc3[nH]ccc23)CC1 [Capivasertib] + Cn1cnc2c(F)c(Nc3ccc(Br)cc3Cl)c(C(=O)NOCCO)cc21 [Selumetinib] (first compound max 10 µM, 7x7, partner max 10 µM) | -0.0321 | -0.0017 | -0.0162 | 0.0441 | -0.015 | 0.0677 | 0.0534 | 0.0691 | 0.034 | 0.0217 | -0.0652 | -0.0115 | 0.0287 | 0.095 | 0.0417 | – | 0.0296 | 0.063 | 0.0087 | -0.002
5 | NC1(C(=O)N[C@@H](CCO)c2ccc(Cl)cc2)CCN(c2ncnc3[nH]ccc23)CC1 [Capivasertib] + C[C@@H]1COCCN1C2=NC(=NC(=C2)C3(CC3)[S@](=N)(=O)C)C4=C5C=CNC5=NC=C4 [AZD6738] (first compound max 10 µM, 7x7, partner max 10 µM) | -0.0414 | -0.0093 | -0.0366 | 0.0398 | -0.0357 | -0.02 | -0.0292 | -0.0847 | -0.0179 | -0.0785 | -0.0337 | -0.0267 | -0.0748 | -0.0452 | -0.0208 | – | -0.0193 | -0.001 | -0.0499 | -0.0679
6 | NC1(C(=O)N[C@@H](CCO)c2ccc(Cl)cc2)CCN(c2ncnc3[nH]ccc23)CC1 [Capivasertib] + CCN(CCO)CCCOc1ccc2c(Nc3cc(CC(=O)Nc4cccc(F)c4)[nH]n3)ncnc2c1 [AZD2811] (first compound max 10 µM, 7x7, partner max 1 µM) | -0.0297 | -0.0168 | -0.0328 | 0.0502 | -0.004 | -0.0086 | -0.0597 | -0.0289 | -0.0687 | -0.0396 | -0.0095 | 0.0438 | 0.0216 | 0.013 | -0.0363 | – | -0.0052 | -0.0239 | -0.03 | 0.004
7 | NC1(C(=O)N[C@@H](CCO)c2ccc(Cl)cc2)CCN(c2ncnc3[nH]ccc23)CC1 [Capivasertib] + CC(=O)c1c(C)c2cnc(Nc3ccc(N4CCNCC4)cn3)nc2n(C2CCCC2)c1=O [Palbociclib] (first compound max 10 µM, 7x7, partner max 10 µM) | -0.0445 | 0.0182 | -0.0489 | 0.0977 | 0.0018 | -0.0098 | 0.0279 | -0.0135 | -0.0171 | -0.0616 | -0.0365 | -0.0008 | -0.057 | -0.0221 | -0.0475 | – | -0.0331 | 0.0012 | -0.0372 | -0.0581
8 | NC1(C(=O)N[C@@H](CCO)c2ccc(Cl)cc2)CCN(c2ncnc3[nH]ccc23)CC1 [Capivasertib] + COc1nnc2ccc(N3CCC(c4ccc(OCCN5CCN(C)C(=O)[C@H]5C)cc4)CC3)nn12 [AZD5153] (first compound max 10 µM, 7x7, partner max 1 µM) | -0.0184 | 0.073 | -0.0266 | 0.0409 | 0.0497 | 0.0145 | 0.0491 | 0.124 | 0.0617 | -0.0552 | -0.042 | -0.0012 | 0.0733 | -0.0365 | 0.0603 | – | -0.0213 | 0.0448 | 0.0226 | 0.0578
9 | CS(=O)(=O)CCNCc1ccc(-c2ccc3ncnc(Nc4ccc(OCc5cccc(F)c5)c(Cl)c4)c3c2)o1 [Lapatinib] + Cn1cnc2c(F)c(Nc3ccc(Br)cc3Cl)c(C(=O)NOCCO)cc21 [Selumetinib] (first compound max 10 µM, 7x7, partner max 10 µM) | -0.0364 | – | -0.0403 | – | -0.034 | – | – | -0.0187 | – | 0.0111 | -0.0751 | -0.012 | – | 0.0514 | – | – | 0.0154 | – | 0.0488 | –
10 | NC1(C(=O)N[C@@H](CCO)c2ccc(Cl)cc2)CCN(c2ncnc3[nH]ccc23)CC1 [Capivasertib] + CC(C)n1c(=O)n(C)c2cnc3cc(F)c(-c4ccc(OCCCN5CCCCC5)nc4)cc3c21 [AZD1390] (first compound max 10 µM, 7x7, partner max 0.3 µM) | -0.0843 | -0.0656 | 0.0135 | -0.0274 | -0.0559 | -0.067 | -0.0424 | -0.0296 | -0.111 | -0.0363 | -0.0685 | -0.0169 | -0.0579 | 0.0071 | -0.0416 | – | 0.0062 | -0.0342 | -0.0596 | -0.111
11 | CC(=O)c1c(C)c2cnc(Nc3ccc(N4CCNCC4)cn3)nc2n(C2CCCC2)c1=O [Palbociclib] + Cc1c2c(nn1C)CSCc1cc(n(C)n1)CSc1cc(c3ccccc3c1)OCCCc1c(C(=O)O)n(C)c3c-2c(Cl)ccc13 [AZD5991] (first compound max 10 µM, 7x7, partner max 1 µM) | -0.0426 | -0.114 | -0.0303 | 0.035 | 0.0024 | -0.0314 | 0.0023 | -0.0804 | -0.0807 | -0.0457 | -0.0363 | -0.0484 | 0.0128 | 0.0028 | -0.0192 | – | 0.0026 | -0.021 | -0.0436 | -0.0356
12 | CC(=O)c1c(C)c2cnc(Nc3ccc(N4CCNCC4)cn3)nc2n(C2CCCC2)c1=O [Palbociclib] + CC1(C)CCC(CN2CCN(c3ccc(C(=O)NS(=O)(=O)c4ccc(NCC5CCOCC5)c([N+](=O)[O-])c4)c(Oc4cnc5[nH]ccc5c4)c3)CC2)=C(c2ccc(Cl)cc2)C1 [Venetoclax] (first compound max 10 µM, 7x7, partner max 1 µM) | -0.0295 | -0.0399 | -0.0511 | 0.0637 | -0.0209 | 0.04 | -0.0079 | -0.0349 | -0.0232 | -0.0755 | -0.0666 | -0.0002 | 0.0232 | -0.027 | -0.0078 | – | -0.0033 | -0.0342 | -0.0533 | -0.0324
13 | CC(=O)Nc1cccc(-n2c(=O)n(C3CC3)c(=O)c3c(Nc4ccc(I)cc4F)n(C)c(=O)c(C)c32)c1 [Trametinib] + Cc1nc(-c2cn3c(n2)-c2ccc(-c4cnn(C(C)(C)C(N)=O)c4)cc2OCC3)n(C(C)C)n1 [Taselisib] (first compound max 1 µM, 7x7, partner max 10 µM) | 0.0501 | 0.196 | 0.0493 | 0.103 | 0.0256 | 0.215 | 0.0462 | 0.176 | – | -0.033 | 0.0265 | 0.0312 | 0.0676 | 0.245 | 0.0533 | 0.032 | -0.0308 | 0.134 | 0.0777 | 0.124
14 | CS(=O)(=O)CCNCc1ccc(-c2ccc3ncnc(Nc4ccc(OCc5cccc(F)c5)c(Cl)c4)c3c2)o1 [Lapatinib] + C[C@@H](Oc1cc(-c2cnn(C3CCNCC3)c2)cnc1N)c1c(Cl)ccc(F)c1Cl [Crizotinib] (first compound max 10 µM, 7x7, partner max 10 µM) | -0.017 | 0.0467 | -0.0733 | 0.0256 | -0.0975 | 0.0308 | -0.0156 | -0.0054 | -0.0231 | -0.0366 | -0.0288 | -0.0456 | -0.0451 | -0.0172 | 0.0885 | – | 0.0069 | -0.0154 | -0.0234 | 0.0148
15 | CCc1c2c(nc3ccc(O)cc13)-c1cc3c(c(=O)n1C2)COC(=O)[C@]3(O)CC [SN-38] + O=C(c1cc(Cc2n[nH]c(=O)c3ccccc23)ccc1F)N1CCN(C(=O)C2CC2)CC1 [Olaparib] (first compound max 0.3 µM, 7x7, partner max 10 µM) | 0.0423 | 0.036 | 0.0784 | – | 0.0654 | – | 0.0419 | 0.0159 | 0.0247 | 0.0826 | 0.0066 | 0.0324 | 0.0008 | -0.0243 | -0.0199 | – | 0.0278 | – | -0.0338 | –
